Data: ChEMBL document CHEMBL4765326, “Anchoring BODIPY photosensitizers enable pan-microbial photoinactivation” (Eur J Med Chem, 2020)
Calls of active or inactive are those of the source. No cut-off for these calls is given here.

Assays:
Staphylococcus aureus [1] = assay: Photodynamic antibacterial activity against Staphylococcus aureus assessed as bacterial eradication preincubated for 20 mins in dark condition followed by 18 J/cm2 LED light irradiation and measured after 18 hrs by broth microdilution method; type: functional; details: light or radiation study, 18.33 h, time 1100 min
Candida albicans [2] = assay: Photodynamic antifungal activity against Candida albicans assessed as fungal eradication preincubated for 20 mins in dark condition followed by 18 J/cm2 LED light irradiation and measured after 18 hrs by broth microdilution method; type: functional; details: light or radiation study, 18.33 h, time 1100 min
Escherichia coli [3] = assay: Photodynamic antibacterial activity against Escherichia coli assessed as bacterial eradication preincubated for 20 mins in dark condition followed by 18 J/cm2 LED light irradiation and measured after 18 hrs by broth microdilution method; type: functional; details: light or radiation study, 18.33 h, time 1100 min
[4] = Octanol-water partition coefficient, logP of compound incubated for 24 hrs under shaking condition; type: physicochemical
Escherichia coli [5] = assay: Antibacterial activity against Escherichia coli up to 80 uM by broth microdilution method; type: functional, organism-based; details: dose microM <=80
Staphylococcus aureus [6] = assay: Antibacterial activity against methicillin resistant Staphylococcus aureus up to 80 uM by broth microdilution method; type: functional, organism-based; details: dose microM <=80
[7] = Induction of singlet oxygen generation in DPBF solution assessed as singlet oxygen quantum yield irradiated with 80 mW/cm2 light by DPBF-based assay; type: functional
Staphylococcus aureus [8] = assay: Photodynamic antibacterial activity against methicillin resistant Staphylococcus aureus assessed as bacterial eradication preincubated for 20 mins in dark condition followed by 18 J/cm2 LED light irradiation and measured after 18 hrs by broth microdilution method; type: functional; details: light or radiation study, 18.33 h, time 1100 min
Candida albicans [9] = assay: Antifungal activity against Candida albicans up to 80 uM by broth microdilution method; type: functional, organism-based; details: dose microM <=80
Staphylococcus aureus [10] = assay: Antibacterial activity against Staphylococcus aureus up to 80 uM by broth microdilution method; type: functional, organism-based; details: dose microM <=80
[11] = Drug localization in peripheral edge of Escherichia coli at 10 uM incubated for 30 mins by fluorescent dye based confocal microscopic analysis; type: ADME; details: 0.5 h
Candida albicans [12] = assay: Binding affinity to Candida albicans cell wall assessed as bound fraction at 25 uM measured after 3 to 10 mins; details: time 3-10 min
Candida albicans [13] = assay: Binding affinity to Candida albicans cell wall at 50 uM preincubated with 12.5 to 50 mM Ca2+ for 30 mins followed by incubation with compound for 30 mins
Escherichia coli [14] = assay: Binding affinity to Escherichia coli cell wall at 50 uM preincubated with 12.5 to 50 mM Ca2+ for 30 mins followed by incubation with compound for 30 mins
Escherichia coli [15] = assay: Binding affinity to Escherichia coli cell wall assessed as bound fraction at 25 uM measured after 3 to 10 mins; details: time 3-10 min
Staphylococcus aureus [16] = assay: Binding affinity to Staphylococcus aureus cell wall at 50 uM preincubated with 12.5 to 50 mM Ca2+ for 30 mins followed by incubation with compound for 30 mins
Cell membrane [17] = assay: Binding affinity to Escherichia coli cell membrane assessed as reduction in zeta potential by zetasizer-based analysis; type: subcellular
Staphylococcus aureus [18] = assay: Binding affinity to Staphylococcus aureus cell wall assessed as bound fraction at 25 uM measured after 3 to 10 mins; details: time 3-10 min
Cell membrane [19] = assay: Binding affinity to Staphylococcus aureus cell membrane assessed as reduction in zeta potential by zetasizer-based analysis; type: subcellular

Drug uptake [11]	SMILES	MIC (Staphylococcus aureus [1]) [µM]	MIC (Candida albicans [2]) [µM]	MIC (Escherichia coli [3]) [µM]	logP at 24 h [4]	Activity (Escherichia coli [5])	Activity (Staphylococcus aureus [6])	Activity [7]	MIC (Staphylococcus aureus [8]) [µM]	Activity (Candida albicans [9])	Activity (Staphylococcus aureus [10])	Activity (Candida albicans [12]) [%]	Activity (Candida albicans [13])	Activity (Escherichia coli [14])	Activity (Escherichia coli [15]) [%]	Activity (Staphylococcus aureus [16])	Activity (Cell membrane [17])	Activity (Staphylococcus aureus [18]) [%]	Activity (Cell membrane [19])
	CC1=C(I)C(C)=[N+]2C1=Cc1c(C)c(I)c(C)n1[B-]2(C#Cc1ccc[n+](C)c1)C#Cc1ccc[n+](C)c1	1.25	0.625	1.25	-0.27	inactive	inactive	0.65	0.625	inactive	inactive								
	CC1=C(I)C(C)=[N+]2C1=Cc1c(C)c(I)c(C)n1[B-]2(C#Cc1cc[n+](C)cc1)C#Cc1cc[n+](C)cc1	1.25	0.625	1.25	-0.63	inactive	inactive	0.54	0.625	inactive	inactive								
	CC1=C(I)C(C)=[N+]2C1=Cc1c(C)c(I)c(C)n1[B-]2(OCC[N+](C)(C)C)OCC[N+](C)(C)C	30	40	40	-1.21	inactive	inactive	0.58	20	inactive	inactive								
	CC[N+](C)(CC)CCCO[B-]1(OCCC[N+](C)(CC)CC)n2c(C)c(I)c(C)c2C=C2C(C)=C(I)C(C)=[N+]21	20	40	40	-0.93	inactive	inactive	0.75	20	inactive	inactive								
Active	CC1=CC(C)=[N+]2C1=Cc1c(C)cc(C)n1[B-]2(OCCC[N+](C)(C)C)OCCC[N+](C)(C)C.[I-].[I-]				-1.17														
	CC1=C(I)C(C)=[N+]2C1=Cc1c(C)c(I)c(C)n1[B-]2(OCCCc1cc[n+](C)cc1)OCCCc1cc[n+](C)cc1	1.25	5	1.25	-0.91	inactive	inactive	0.74	1.25	inactive	inactive								
	CC1=C(I)C(C)=[N+]2C1=Cc1c(C)c(I)c(C)n1[B-]2(OCCC[N+](C)(C)C)OCCC[N+](C)(C)C	30	40	40	-1.01	inactive	inactive	0.68	20	inactive	inactive	53.6	inactive	inactive	38.9	inactive	Active	51.8	Active
